Consider four compounds from patent US20230132378A9, “COMPOSITIONS AND METHODS FOR TREATING HEMORRHAGIC STROKE” (UNM RAINFOREST INNOVATIONS, priority 2017, published 2023).

Data set [1] relates to labile zinc accumulation in brain tissue after hemorrhagic stroke. Nature of the data set: Labile zinc staining (Fluozin-3) on brain slices after collagenase-induced ICH. The data set is classed as in vivo, rat. The settings on record: rats pretreated with 10 mg/kg i.p. one hour before collagenase injection; versus saline control. As for the experimental part: (§1) The Laboratory Animal Care and Use Committee of the University of New Mexico approved all experimental protocols. The animals were used in compliance with the NIH Guide for Care and Use of Laboratory Animals. Male Sprague Dawley rats (Charles River Laboratories, Inc., Wilmington, Mass.) weighing 290 g to 320 g were anesthetized with isoflurane (5% for induction, 2% for maintenance) in N2O/O2 (70:30%) during surgical procedures, and the body temperature was maintained at 37.5° C.±0.5° C. using a heating pad. A small burr hole was made at 3.5 mm right of the bregma. 0.2 U collagenase (Sigma-Aldrich, St. Louis, Mo.) in 1 μl sterile saline was injected to 6.0 mm deep through the burr hole. The needle was removed at five minutes after collagenase injection to prevent backflow. A total of 49 rats were used in this study. […]
To detect labile zinc in brain tissue, cryosections 16 μm thick were stained with the zinc-specific membrane-permeable fluorescent dyes Fluozin-3 (Invitrogen, Thermo Fisher Scientific, Carlsbad, Calif.). […] After washing in saline, images were acquired by a fluorescence microscope (Olympus IX71, Olympus Corp., Center Valley, Pa.) with a GFP dichroic mirror.

For data set [2], the system named is cell death in the hemorrhagic brain. Nature of the data set: Brain cell death by TUNEL assay after collagenase-induced ICH. The data set is classed as in vivo, rat. As for the experimental part: as §1
A standard terminal deoxynucleotidyl transferase—mediated dUTP nick-end labeling (TUNEL) procedure for frozen tissue sections was performed (Click-iT TUNEL Alexa Fluor 488 Imaging Assay kit (Thermo Fisher Scientific, Waltham, Mass.). Histological images were captured on a fluorescence microscope (Olympus IX71, Olympus Corp., Center Valley, Pa.) with a TRITC dichroic mirror.

Data set [3] concerns ICH-induced brain damage. Nature of the data set: Brain damage by T2-weighted MRI after collagenase-induced ICH. It is filed as in vivo, rat. On the procedure:
(§2) The Laboratory Animal Care and Use Committee of the University of New Mexico approved all experimental protocols. The animals were used in compliance with the NIH Guide for Care and Use of Laboratory Animals. Male Sprague Dawley rats (Charles River Laboratories, Inc., Wilmington, Mass.) weighing 290 g to 320 g were anesthetized with isoflurane (5% for induction, 2% for maintenance) in N2O/O2 (70:30%) during surgical procedures, and the body temperature was maintained at 37.5° C.±0.5° C. using a heating pad. A small burr hole was made at 3.5 mm right of the bregma. 0.2 U collagenase (Sigma-Aldrich, St. Louis, Mo.) in 1 μl sterile saline was injected to 6.0 mm deep through the burr hole. The needle was removed at five minutes after collagenase injection to prevent backflow. A total of 49 rats were used in this study.
All multimodal magnetic resonance imaging (MRI) of the rat was performed by using a 4.7-Tesla MRI scanner (Bruker Biospin, Billerica, Mass.), which was equipped with a 40-cm bore, a 660 mT/m (rise time within 120 μs) gradient and shim systems (Bruker Biospin, Billerica, Mass.). The rats were anaesthetized with 2% isoflurane (Clipper Distributing Company, LLC, St. Joseph, Mo.) during MRI. At the same time respiration and heart rate were monitored. The body temperature of the rats was maintained at 37.0° C.±0.5° C. […]

Data set [4] deals with ZnPP generation in the hemorrhagic brain. Nature of the data set: ZnPP autofluorescence imaging on hemorrhagic brain slices. It is filed as in vivo, rat. On the procedure:
as §2
N,N,N′,N′-tetrakis-(2-Pyridylmethyl)ethylenediamine (TPEN, Sigma-Aldrich, St. Louis, Mo.) was dissolved in dimethyl sulfoxide (DMSO) to 25 mg/ml and then further diluted in physiological saline to a final concentration of 2.5 mg/ml. 10 mg/kg TPEN was intraperitoneal injected at one hour before collagenase injection. Saline with 10% DMSO was used as control.
N-methyl protoporphyrin IX (Santa Cruz Biotechnology, Inc., Dallas, Tex.), a ferrochelatase inhibitor was dissolved in DMSO to 200 mg/ml and then further diluted in physiological saline to a final concentration of 20 mg/ml. […]

Data set [5] relates to ZnPP in hemorrhagic hemisphere tissue. Nature of the data set: Fluorescence spectrophotometry of ZnPP in brain tissue extract. The data set is classed as in vivo, rat. The settings on record: TPEN pretreatment. As for the experimental part:
as §1
The animals were euthanized at 24 hours after collagenase injection. […] After centrifugation at 13,000×g, the fluorescence intensity (excitation=416 nm, emission=588 nm) was determined using a SpectraMax M2 Multi-Mode Microplate Readers (Molecular Devices LLC, Sunnyvale, Calif.) as previously described (Nakamura et al., 2011. J Control Release 155(3):367-375. After being treated with heparin as an anti-coagulant, 50 μl blood was diluted in ethanol. Followed by centrifugation, the fluorescence intensity of ZnPP in the ethanol extract supernatant was measured.

The test system of data set [6] is whole rat blood. Nature of the data set: ZnPP generation in whole blood with zinc under hypoxia. Particulars: 100 μM zinc, hypoxia three hours, P=0.00096. As for the experimental part: The animals were euthanized at 24 hours after collagenase injection. The brains were harvested and cut into 2-mm thick coronal slice. The tissue with visible blood at the hemorrhagic hemisphere of each slice was collected. And the tissue at the corresponding location at the contralateral hemisphere was also collected. The tissue was homogenized on ice in ethanol. After centrifugation at 13,000×g, the fluorescence intensity (excitation=416 nm, emission=588 nm) was determined using a SpectraMax M2 Multi-Mode Microplate Readers (Molecular Devices LLC, Sunnyvale, Calif.) as previously described (Nakamura et al., 2011. J Control Release 155(3):367-375. After being treated with heparin as an anti-coagulant, 50 μl blood was diluted in ethanol. Followed by centrifugation, the fluorescence intensity of ZnPP in the ethanol extract supernatant was measured.
Blood was drawn from normal Sprague Dawley rats. Blood was subjected to hypoxia by incubating in a humidified airtight chamber (Billups-Rothenberg, Inc., San Diego, Calif.) equipped with an air lock and flushed with 95% N2/5% CO2 for 15 minutes. Then the chamber was scaled and kept at 37° C. for three hours.

Data set [7] concerns the target T1, ferrochelatase (Homo sapiens, UniProt P22830).
T1 sequence (P22830 55-423): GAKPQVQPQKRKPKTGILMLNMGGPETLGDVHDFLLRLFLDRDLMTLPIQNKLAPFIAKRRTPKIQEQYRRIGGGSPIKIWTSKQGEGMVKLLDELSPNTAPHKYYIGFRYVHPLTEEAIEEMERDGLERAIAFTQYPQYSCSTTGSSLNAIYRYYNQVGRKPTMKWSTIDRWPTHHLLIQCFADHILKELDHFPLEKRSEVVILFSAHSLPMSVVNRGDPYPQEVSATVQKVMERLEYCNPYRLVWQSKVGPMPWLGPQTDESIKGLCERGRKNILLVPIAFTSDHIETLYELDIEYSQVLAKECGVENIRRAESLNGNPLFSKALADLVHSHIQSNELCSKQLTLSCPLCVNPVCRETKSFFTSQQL
The settings on record: cited from earlier work.

Data set [8] deals with primary neurons. Description: Cytotoxicity (Cytotox 96 LDH release) in primary neurons. It is filed as cell-based. The settings on record: for neuron toxicity under hypoxia / cell death in normoxia: three-hour exposure; for neuron toxicity under hypoxia: 2.5-7.5 μM; for cell death in normoxia: any concentration tested. A general note: LDH leaks from cells whose membrane has failed.

The subject of data set [9] is primary astrocytes. Nature of the data set: Cytotoxicity (Cytotox 96 LDH release) in primary astrocytes. The data set is classed as cell-based. Particulars: three-hour exposure, 5 and 7.5 μM. On the procedure:
Astrocytic death rate was measured using Cytotox 96 nonradioactive cytotoxicity assay kit (Promega, Madison, Wis.), which quantitatively measures lactate dehydrogenase (LDH) release from dead cells. Astroytes (5×10^3 cells/well) were seeded into 96-well microtiter plates. Following three hours normoxia or hypoxia treatment, 50 μl of the reconstituted substrate mixture was added to each well of the plate. Thirty minutes later, 50 μl of the stop solution was added to each well, and the absorbance was measured at 490 nm in a microplate reader (Bio-Rad 3350, Bio-Rad Laboratories, Inc. Hercules, Calif.). Triton-X 100-treated cells were used as 100% cell death control. The cell death rate was calculated by using the formula: Cell death rate=(Experimental absorbance value−culture medium absorbance value)/(Triton-X 100-treated absorbance value−culture medium absorbance value).

For data set [10], the system named is brain of permanent MCAO rat model. Nature of the data set: ZnPP injection into brain parenchyma of MCAO or normal rats, T2-weighted MRI. Particulars: MCAO rats, ZnPP 10 μg/kg into brain parenchyma of ischemic side. It is filed as in vivo. On the procedure: All multimodal magnetic resonance imaging (MRI) of the rat was performed by using a 4.7-Tesla MRI scanner (Bruker Biospin, Billerica, Mass.), which was equipped with a 40-cm bore, a 660 mT/m (rise time within 120 μs) gradient and shim systems (Bruker Biospin, Billerica, Mass.). The rats were anaesthetized with 2% isoflurane (Clipper Distributing Company, LLC, St. Joseph, Mo.) during MRI. At the same time respiration and heart rate were monitored. The body temperature of the rats was maintained at 37.0° C.±0.5° C. The success of the intracerebral hemorrhage model and brain damage was estimated by T2-weighted images. T2-weighted images were acquired with a fast spin-echo sequence (rapid acquisition with relaxation enhancement (RARE)) (Repetition Time (TR)/Echo Time (TE)=5,000 ms/56 ms, Field of View (FOV)=4 cm×4 cm, slice thickness=1 mm, inter-slice distance=1.1 mm, number of slices=12, matrix=256×256, number of average=3).
Middle cerebral artery occlusion (MCAO) surgery was used to induce focal cerebral ischemia through intraluminal filament methods as described previously (Zhao et al., 2014, Stroke 45:1139-1147). The animals underwent right MCAO for 24 hours. ZnPP (10 μg/kg) in […] or 5 μl saline was injected to 6.0 mm deep at 3.5 mm right of the bregma through a burr hole on normal or MCAO rat, 10 minutes after MCAO onset.

In data set [11] the target is T2, heme oxygenase-1 (HO-1) (Homo sapiens, UniProt P09601).
T2 sequence (P09601 1-288): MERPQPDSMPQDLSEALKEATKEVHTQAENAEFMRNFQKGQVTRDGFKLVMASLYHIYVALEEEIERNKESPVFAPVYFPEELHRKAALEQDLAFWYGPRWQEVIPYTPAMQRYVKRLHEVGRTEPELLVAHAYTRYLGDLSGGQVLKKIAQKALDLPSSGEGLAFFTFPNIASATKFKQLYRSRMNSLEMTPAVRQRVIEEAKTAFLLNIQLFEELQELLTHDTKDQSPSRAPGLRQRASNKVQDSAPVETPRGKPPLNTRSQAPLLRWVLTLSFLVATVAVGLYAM
The settings on record: levels as low as; cited from earlier work.

`c1ccc(CN(CCN(Cc2ccccn2)Cc2ccccn2)Cc2ccccn2)nc1` [TPEN, N,N,N′,N′-tetrakis-(2-Pyridylmethyl)ethylenediamine]: the “zinc fluorescence signal (Fluozin-3) around hemorrhagic area” value in data set [1] is listed as “significantly reduced”. Besides, the “TUNEL signal (cell death) at edge of hemorrhagic area” value in [2] (TPEN 10 mg/kg i.p. one hour before collagenase injection) is on record as “markedly decreased”. Further, the “hyperintense lesion on T2-weighted MRI (brain damage)” value in data set [3] (TPEN pretreatment, 24 hours after collagenase-induced ICH) is on record as “significantly reduced”. Further, in [4] (TPEN pretreatment, 24 hours after collagenase injection, P=0.0034), the “ZnPP fluorescence on brain slices” value was “significantly decreased”. The “ZnPP formed at the hemorrhagic hemisphere (fluorescence intensity at 588 nm)” value in data set [5] is on record as “significantly reduced”. Moreover, in data set [6], the “zinc-induced ZnPP generation in hypoxic blood” value was “decreased”.
On to “N-methyl protoporphyrin IX [N-methyl PP]”, for which, in [2] (N-methyl PP 100 mg/kg i.p. pretreatment, P=0.000039), the “number of TUNEL positive cells relative to saline treated control group” value amounted to 14%. In addition, the “brain damage in ICH by T2-weighted MRI” value in data set [3] (N-methyl PP pretreatment one hour before collagenase-induced ICH, P=0.043) was “significantly reduced”. The “reduction of ZnPP fluorescence in brain tissue versus no treatment” value in data set [4] (N-methyl PP 100 mg/kg i.p. one hour before ICH induction, P=0.0037) is listed as “about two thirds”. Moreover, the inhibition of ferrochelatase result in data set [7] is given as “potently inhibited”.
With hemin, in [8] (hypoxia), the “neuron toxicity under hypoxia” value is “significant dose-dependent increases”. For the same compound, in data set [8], the “cell death in normoxia” value is “Neither ZnPP nor hemin induced significant cell death”. Moreover, the “astrocyte toxicity in hypoxia” value in [9] is on record as “did not”.
In the case of `C=CC1=C(C)c2cc3[n-]c(cc4nc(cc5[n-]c(cc1n2)c(C)c5C=C)C(C)=C4CCC(=O)O)c(CCC(=O)O)c3C.[Zn+2]` [ZnPP, zinc protoporphyrin], the “neuron toxicity under hypoxia” value in data set [8] (hypoxia) is “significant dose-dependent increases”. Also, in [8] (hypoxia, 2.5 μM P=0.0092, 5 μM P=0.0046, 7.5 μM P=0.0059), the “toxicity in hypoxia compared with hemin (neurons)” value was “greater than that of hemin”. Besides, the “cell death in normoxia” value in data set [8] is reported as “Neither ZnPP nor hemin induced significant cell death”. In data set [9], the “astrocyte toxicity in hypoxia” value was “dose dependent increase in toxicity”. For the same compound, the “brain damage area on T2-weighted MRI after ZnPP injection” value in [10] is listed as “significantly increased”. In addition, in data set [11], the “level significantly decreasing HO-1 activity” value is on record as 0.15.
